# Legend:
# OVCAR-3 = assay: cells; conditions: Homo sapiens, OVCAR-3, 48 h; for CC50: read-out: LC50
# PC-3 = assay: cells; conditions: Homo sapiens, PC-3, 48 h; for CC50: read-out: LC50
# SNB-19 = assay: cells; conditions: Homo sapiens, SNB-19, 48 h; for CC50: read-out: LC50
# HS 578T = assay: cells; conditions: Homo sapiens, 48 h; for CC50: read-out: LC50
# OVCAR-8 = assay: cells; conditions: Homo sapiens, OVCAR-8, 48 h; for CC50: read-out: LC50
# [1] = Hemolytic activity, spectrophotometric; format: cell-based, human; conditions: human, human red blood cells (huRBC), 5% hematocrit, 200 μg/mL, 37 °C
# CCRF-CEM = assay: cells; conditions: Homo sapiens, 48 h; for CC50: read-out: LC50
# IGROV1 = assay: cells; conditions: Homo sapiens, IGROV-1, 48 h; for CC50: read-out: LC50
# MALME-3M = assay: cells; conditions: Homo sapiens, 48 h; for CC50: read-out: LC50
# SF-268 = assay: cells; conditions: Homo sapiens, SF-268, 48 h; for CC50: read-out: LC50
# SK-MEL-28 = assay: cells; conditions: Homo sapiens, SK-MEL-28, 48 h; for CC50: read-out: LC50
# RXF 393 = assay: cells; conditions: Homo sapiens, RXF 393, 48 h; for CC50: read-out: LC50
# SR = assay: cells; conditions: Homo sapiens, 48 h; for CC50: read-out: LC50
# EKVX = assay: cells; conditions: Homo sapiens, 48 h; for CC50: read-out: LC50
# NCI/ADR-RES = assay: cells; conditions: Homo sapiens, 48 h; for CC50: read-out: LC50
# ACHN = assay: cells; conditions: Homo sapiens, 48 h; for CC50: read-out: LC50
# NCI-H322M = assay: cells; conditions: Homo sapiens, 48 h; for CC50: read-out: LC50
# HCC-2998 = assay: cells; conditions: Homo sapiens, HCC 2998, 48 h; for CC50: read-out: LC50
# [2] = tested on: M. tuberculosis ATCC 27294; assay: Antitubercular broth microdilution MIC; format: cell-based; conditions: Mycobacterium tuberculosis; M. tuberculosis ATCC 27294 (H37Rv); read-out: Minimum inhibitory concentration (MIC)
# BT-549 = assay: cells; conditions: Homo sapiens, BT-549, 48 h; for CC50: read-out: LC50
# K-562 = assay: cells; conditions: Homo sapiens, K562, 48 h; for GI50: K-562, 48 h; for CC50: read-out: LC50
# MDA-MB-435 = assay: cells; conditions: Homo sapiens, MDA-MB-435, 48 h; for CC50: read-out: LC50
# CAKI-1 = assay: cells; conditions: Homo sapiens, CAKI-1, 48 h; for CC50: read-out: LC50
# SW-620 = assay: cells; conditions: Homo sapiens, SW-620, 48 h; for CC50: read-out: LC50
# UACC-62 = assay: cells; conditions: Homo sapiens, UACC-62, 48 h; for CC50: read-out: LC50
# HOP-62 = assay: cells; conditions: Homo sapiens, HOP-62, 48 h; for CC50: read-out: LC50
smiles,measurement,setting,value
CN(C)c1nc(NCCNS(=O)(=O)c2ccc(C(=O)/C=C/c3ccccc3)cc2)nc(Nc2ccc(F)cc2)n1 [24a],GI50,OVCAR-3,8.59 µM
same,CC50,OVCAR-3,48.7 µM
same,GI50,PC-3,4.39 µM
same,CC50,PC-3,> 100 µM
same,GI50,SNB-19,10.4 µM
same,CC50,SNB-19,51 µM
same,GI50,HS 578T,7.39 µM
same,CC50,HS 578T,> 100 µM
same,GI50,OVCAR-8,12.2 µM
same,CC50,OVCAR-8,57.1 µM
same,"hemolysis at 24 h, 200 µg/mL",[1],10.6%
same,GI50,CCRF-CEM,6.59 µM
same,CC50,CCRF-CEM,> 100 µM
same,GI50,IGROV1,11.2 µM
same,CC50,IGROV1,50.6 µM
same,GI50,MALME-3M,12.6 µM
same,CC50,MALME-3M,54.5 µM
same,GI50,SF-268,5.65 µM
same,CC50,SF-268,65.2 µM
same,GI50,SK-MEL-28,10.2 µM
same,CC50,SK-MEL-28,48.4 µM
same,GI50,RXF 393,2.94 µM
same,CC50,RXF 393,39.9 µM
same,GI50,SR,2.58 µM
same,CC50,SR,> 100 µM
same,GI50,EKVX,4.48 µM
same,CC50,EKVX,40.6 µM
same,GI50,NCI/ADR-RES,7.33 µM
same,CC50,NCI/ADR-RES,50.3 µM
same,GI50,ACHN,4.92 µM
same,CC50,ACHN,43.5 µM
same,GI50,NCI-H322M,9.83 µM
same,CC50,NCI-H322M,76.9 µM
same,GI50,HCC-2998,2.35 µM
same,CC50,HCC-2998,17.9 µM
same,MIC,[2],25 mg/L
same,GI50,BT-549,13.9 µM
same,CC50,BT-549,54.3 µM
same,GI50,K-562,3.34 µM
same,CC50,K-562,> 100 µM
same,GI50,MDA-MB-435,7.44 µM
same,CC50,MDA-MB-435,59.8 µM
same,GI50,CAKI-1,4.75 µM
same,CC50,CAKI-1,52.6 µM
same,GI50,SW-620,5.56 µM
same,CC50,SW-620,54.3 µM
same,GI50,UACC-62,6.68 µM
same,CC50,UACC-62,46.9 µM
same,GI50,HOP-62,11.8 µM
same,CC50,HOP-62,60.6 µM
COc1cc(/C=C/C(=O)c2ccc(S(=O)(=O)NCCNc3nc(Nc4ccc(F)cc4)nc(N(C)C)n3)cc2)cc(OC)c1OC [24d],GI50,OVCAR-3,6.18 µM
same,CC50,OVCAR-3,98.4 µM
same,GI50,PC-3,3.22 µM
same,CC50,PC-3,> 100 µM
same,GI50,SNB-19,11.2 µM
same,CC50,SNB-19,48.7 µM
same,GI50,HS 578T,8.24 µM
same,CC50,HS 578T,> 100 µM
same,GI50,OVCAR-8,11.1 µM
same,CC50,OVCAR-8,> 100 µM
same,"hemolysis at 24 h, 200 µg/mL",[1],2.3%
same,GI50,CCRF-CEM,3.62 µM
same,CC50,CCRF-CEM,> 100 µM
same,GI50,IGROV1,16.1 µM
same,CC50,IGROV1,59.8 µM
same,GI50,MALME-3M,11.9 µM
same,CC50,MALME-3M,55.2 µM
same,GI50,SF-268,11.7 µM
same,CC50,SF-268,> 100 µM
same,GI50,SK-MEL-28,6.13 µM
same,CC50,SK-MEL-28,44.6 µM
same,GI50,RXF 393,1.45 µM
same,CC50,RXF 393,6.74 µM
same,GI50,SR,2.42 µM
same,CC50,SR,> 100 µM
same,GI50,EKVX,4.85 µM
same,CC50,EKVX,42.2 µM
same,GI50,NCI/ADR-RES,3.38 µM
same,CC50,NCI/ADR-RES,56.3 µM
same,GI50,ACHN,5.13 µM
same,CC50,ACHN,60.4 µM
same,GI50,NCI-H322M,10.1 µM
same,CC50,NCI-H322M,> 100 µM
same,GI50,HCC-2998,1.62 µM
same,CC50,HCC-2998,5.52 µM
same,MIC,[2],50 mg/L
same,GI50,BT-549,2.25 µM
same,CC50,BT-549,31.2 µM
same,GI50,K-562,2.73 µM
same,CC50,K-562,> 100 µM
same,GI50,MDA-MB-435,2.8 µM
same,CC50,MDA-MB-435,93.9 µM
same,GI50,CAKI-1,5.2 µM
same,CC50,CAKI-1,> 100 µM
same,GI50,SW-620,1.95 µM
same,CC50,SW-620,7.43 µM
same,GI50,UACC-62,8.28 µM
same,CC50,UACC-62,48.8 µM
same,GI50,HOP-62,14.1 µM
same,CC50,HOP-62,59.9 µM

# Reference: PMC11012124, “Synthesis of Novel Triazine-Based Chalcones and 8,9-dihydro-7H-pyrimido[4,5-b][1,4]diazepines as Potential Leads in the Search of Anticancer, Antibacterial and Antifungal Agents” (International Journal of Molecular Sciences, 2024)
